Where two headings read alike, the source gives them in different places.
Assays:
[1] = target: T1, topoisomerase I (Topo I) (Homo sapiens, UniProt P11387); test: Topo I enzyme-inhibitory activity by agarose-gel electrophoresis (plasmid relaxation); type: biochemical
T1 sequence (P11387 1-765): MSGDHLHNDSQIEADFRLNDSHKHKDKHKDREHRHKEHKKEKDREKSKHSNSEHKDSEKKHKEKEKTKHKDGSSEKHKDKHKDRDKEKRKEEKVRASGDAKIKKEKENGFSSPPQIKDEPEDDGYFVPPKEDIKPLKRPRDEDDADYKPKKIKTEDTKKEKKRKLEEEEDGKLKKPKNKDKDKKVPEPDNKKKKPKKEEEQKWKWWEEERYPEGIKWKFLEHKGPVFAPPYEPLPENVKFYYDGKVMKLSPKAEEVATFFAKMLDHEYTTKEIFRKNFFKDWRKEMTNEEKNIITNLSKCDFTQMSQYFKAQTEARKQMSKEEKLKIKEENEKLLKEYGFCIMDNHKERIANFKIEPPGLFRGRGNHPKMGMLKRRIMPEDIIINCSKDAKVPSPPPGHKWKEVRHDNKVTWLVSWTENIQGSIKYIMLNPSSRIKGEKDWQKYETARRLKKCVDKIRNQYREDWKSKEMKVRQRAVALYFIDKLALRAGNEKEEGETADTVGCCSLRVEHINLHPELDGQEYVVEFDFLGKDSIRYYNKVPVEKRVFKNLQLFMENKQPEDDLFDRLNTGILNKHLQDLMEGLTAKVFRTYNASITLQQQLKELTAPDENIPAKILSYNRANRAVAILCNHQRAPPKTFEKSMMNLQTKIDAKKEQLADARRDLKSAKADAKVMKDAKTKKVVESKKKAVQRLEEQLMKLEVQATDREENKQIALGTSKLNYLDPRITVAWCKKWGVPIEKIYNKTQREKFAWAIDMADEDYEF
From the text: Test Example 1. Determination of Topo I Enzyme-Inhibitory Activity by Agarose-Gel Electrophoresis
Principle: Type-I topoisomerase (Topo I) relaxes positive and negative supercoils by introducing transient single-strand breaks and forming reversible cleavage complexes (Topo I-DNA covalent complexes). Gel electrophoresis can resolve DNA species of identical molecular weight but different topology: supercoiled plasmid migrates fastest, whereas the nicked, relaxed form moves more slowly. Quantifying the decrease in supercoiled DNA therefore provides a direct measure of Topo I activity.
Experimental Procedure: A 1× reaction buffer was prepared (20 mM Tris-HCl pH 7.5, 200 mM NaCl, 0.25 mM EDTA, 5 % (v/v) glycerol, 0.5 µg pNO1 plasmid substrate). Test compounds (5 % DMSO final) were added to the buffer, followed by Topo I enzyme (0.75 U per reaction). After gentle mixing, reactions were incubated at 37 °C for 30 min. Positive (enzyme + vehicle) and negative (no enzyme) controls were included in parallel. Reactions were terminated by adding STEB buffer and chloroform/iso-amyl alcohol (24:1, v/v), vortexed and centrifuged for 2 min. The aqueous (upper) phase was loaded onto a 1 % (w/v) agarose gel, electrophoresed for 1-2 h, stained with GelRed, and imaged under UV trans-illumination.
Data Analysis: Band intensities of supercoiled DNA were quantified with image-analysis software. Relaxation activity (%) was calculated as (Max-Sample)/ (Max-Min)*100%, where Max = intensity of the no-enzyme negative control, Min = intensity of the vehicle-only positive control, and Sample = intensity of the compound-treated lane. Dose-response data (compound concentration, X; relaxation activity %, Y) were fitted in Excel or GraphPad Prism 5.0 using the four-parameter logistic equation: Y=Bottom + (Top-Bottom)/(1+(IC50/X)[…]) to derive the IC50 value for each compound.
Table 1. Compound-mediated inhibition of topoisomerase I (Topo I) enzymatic activity

[2] = test system: HCT116 cells; test: Inhibition of cell proliferation by CTG (CellTiter-Glo) luminescence assay; type: cell-based; details: Homo sapiens, read-out: HCT116, IC50
From the text: Test Example 2. Determination of Compound-Mediated Inhibition of Cell Proliferation by CTG (CellTiter-Glo) Luminescence Assay
Principle: The Promega CellTiter-Glo™ luciferase reagent was used. Luciferase consumes ATP to generate light; metabolically active cells continuously produce ATP through respiration and other processes. After adding an equal volume of CellTiter-Glo™ reagent to the culture medium, the resulting luminescence is directly proportional to the ATP content, which in turn correlates with the number of viable cells. Thus, the assay quantifies compound-induced suppression of cell proliferation.
Experimental Procedure: HCT116 cells (ATCC) were revived in complete medium (McCoy's 5a + 10 % FBS). After two passages, exponentially growing cells were harvested, counted, and resuspended to the appropriate density. A 100 µL aliquot of cell suspension (2 000 cells per well) was seeded into 96-well plates and incubated overnight (37 °C, 5 % CO2, 100 % relative humidity). Test compounds were dissolved in DMSO to prepare 10 mM stock solutions and serially diluted 1:3 in DMSO to generate nine concentration steps. Each DMSO solution was further diluted 200-fold into medium; 25 µL of the resulting solutions were added to the cell plates (final DMSO concentration […]). After 72 h incubation (37 °C, 5 % CO2), 50 µL of CellTiter-Glo reagent was added per well. Plates were shaken gently, incubated for 30 min at room temperature in the dark, and luminescence was read on an EnVision multimode reader. Percent inhibition was calculated as: Inhibition % = (1−As/Ac) × 100, [formula] where As = signal from compound-treated wells and Ac = signal from DMSO-only control wells. Concentration-response data were fitted in Excel with the XLfit add-in using the four-parameter logistic equation: Y = Bottom + (Top−Bottom)/[1+((IC50/X))^(∧)HillSlope], [formula] to derive the IC50 value for each compound. Table 2. IC50 of compounds

[3] = read-out: inhibition of topoisomerase I (Topo I) enzymatic activity, IC50; 0.75 U Topo I, pNO1 plasmid, 37 °C, 30 min; compounds listed by group (Group A / Group B)
[4] = 0.75 U Topo I, pNO1 plasmid, 37 °C, 30 min; compounds listed by group (Group A / Group B); read-out: inhibition of topoisomerase I (Topo I) enzymatic activity, IC50
[5] = HCT-116, 72 h incubation, CellTiter-Glo

CC[C@@]1(O)C(=O)OCc2c1cc1n(c2=O)Cc2c-1c(=O)c1cc(F)cnc1n2C [Example 19, (S)-7-ethyl-3-fluoro-7-hydroxy-14-methyl-10,14-dihydro-11H-pyrano[3',4':6,7]indolizino[2,1-b][1,8]diazepine-5,8,11(7H,13H)-trione] gave an IC50 [1, 3] of 200 to 500 nM and an IC50 ([2]; HCT-116, 72 h) of less than 20 nM.

For CC[C@@]1(O)C(=O)OCc2c1cc1n(c2=O)Cc2c-1c(=O)c1cc3c(cc1n2-c1ccc(N)cc1)OCO3 [Example 67, (S)-5-(4-aminophenyl)-12-ethyl-12-hydroxy-9,12-dihydro-8H-[1,3]dioxolo[4,5-g]pyrano[3,4:6,7]indolizino[2,1-b]quinoline-8,11,14 (SH,6H)-trione], the IC50 [1, 3] was 200 to 500 nM and the IC50 ([2]; HCT-116, 72 h) was less than 20 nM.

For CC[C@@]1(O)C(=O)OCc2c1cc1n(c2=S)Cc2c-1c(=O)c1cc(F)cc(C)c1n2C [Example 39, (S)-4-ethyl-8-fluoro-4-hydroxy-10,11-dimethyl-14-thioxo-12,14-dihydro-1H-pyrano[3',4':6,7]indolizino[2,1-b]quinoline-3,6(4H, 11H)-dione], the IC50 [1, 4] was less than 200 nM and the IC50 [2, 5] was less than 20 nM.

Work on CC[C@@]1(O)C(=O)OCc2c1cc1n(c2=O)Cc2c-1c(=O)c1cc(F)ccc1n2-c1cccc(OC)c1 [Example 73, (S)-4-ethyl-8-fluoro-4-hydroxy-11-(3-methoxyphenyl)-1,12-dihydro-14H-pyrano[3,4:6,7]indolizino[2,1-b]quinoline-3,6,14(4H,11H)-trione] yielded an IC50 [1, 3] of 200 to 500 nM and an IC50 ([2]; HCT-116, 72 h) of less than 20 nM.

Compound CC[C@@]1(O)C(=O)OCc2c1cc1n(c2=O)Cc2c-1c(=O)c1cc(F)ccc1n2CCN1C2CCC1CC(F)(F)C2 [Example 187] has an IC50 [1, 3] of 200 to 500 nM and an IC50 ([2]; HCT-116, 72 h) of less than 20 nM.

CC[C@@]1(O)C(=O)OCc2c1cc1n(c2=O)Cc2c-1c(=O)c1cc(F)cc(C)c1n2CCNC1CC1 [Example 169] gave an IC50 [1, 3] of 200 to 500 nM and an IC50 ([2]; HCT-116, 72 h) of less than 20 nM.

CC[C@@]1(O)C(=O)OCc2c1cc1n(c2=O)Cc2c-1c(=O)c1cc(F)c(C)cc1n2CCN(C1CCCC1)C1CC1 [Example 167] gave an IC50 [1, 3] of 200 to 500 nM and an IC50 ([2]; HCT-116, 72 h) of less than 20 nM.

In the case of CC[C@@]1(O)C(=O)OCc2c1cc1n(c2=O)Cc2c-1c(=O)c1cc(F)ccc1n2CCN(C1CCC1)C1CCC1 [Example 119], the IC50 [1, 3] is reported as 200 to 500 nM and the IC50 ([2]; HCT-116, 72 h) is reported as less than 20 nM.

Compound CC[C@@]1(O)C(=O)OCc2c1cc1n(c2=O)Cc2c-1c(=O)c1cc(F)c(C)cc1n2CCN(C)C1CCCC1 [Example 166] has an IC50 [1, 3] of 200 to 500 nM and an IC50 ([2]; HCT-116, 72 h) of less than 20 nM.

CC[C@@]1(O)C(=O)OCc2c1cc1n(c2=O)Cc2c-1c(=O)c1cc(F)cc(CN(C)C3CC3)c1n2C [Example 89, (S)-10-((cyclopropyl(methyl)amino)methyl)-4-ethyl-8-fluoro-4-hydroxy-11-methyl-1,12-dihydro-14H-pyrano[3,4:6,7]indolizino[2,1-b]quinoline-3,6,14(4H,11H)-trione] was tested, and the IC50 [1, 3] was 200 to 500 nM and the IC50 ([2]; HCT-116, 72 h) was less than 20 nM.

CC[C@@]1(O)C(=O)OCc2c1cc1n(c2=O)Cc2c-1c(=O)c1cc(F)cc(OC)c1n2C [Example 10, (S)-4-ethyl-8-fluoro-4-hydroxy-10-methoxy-11-methyl-1,12-dihydro-14H-pyrano[3,4:6,7]indolizino[2,1-b]quinoline-3,6,14 (4H,11H)-trione] was tested, and the IC50 [1, 3] was less than 200 nM and the IC50 ([2]; HCT-116, 72 h) was less than 20 nM.

With CC[C@@]1(O)C(=O)OCc2c1cc1n(c2=O)Cc2c-1c(=O)c1cc(F)ccc1n2CCN1CCC(C)(C)CC1 [Example 185] the IC50 [1, 3] was 200 to 500 nM and the IC50 ([2]; HCT-116, 72 h) was less than 20 nM.

For CC[C@@]1(O)C(=O)OCc2c1cc1n(c2=O)Cc2c-1c(=O)c1cc(F)ccc1n2CCN1CCCC1(C)C [Example 184], the IC50 [1, 3] was less than 200 nM and the IC50 ([2]; HCT-116, 72 h) was less than 20 nM.

CC[C@@]1(O)C(=O)OCc2c1cc1n(c2=O)Cc2c-1c(=O)c1cc(F)ccc1n2C(C)C [Example 36, (S)-4-ethyl-8-fluoro-4-hydroxy-11-isopropyl-1,12-dihydro-14H-pyrano[3',4':6,7]indolizino[2,1-b]quinoline-3,6,14(4H,11H)-trione] showed an IC50 [1, 3] of less than 200 nM and an IC50 ([2]; HCT-116, 72 h) of less than 20 nM.

Compound CC[C@@]1(O)C(=O)OCc2c1cc1n(c2=O)Cc2c-1c(=O)c1cc(F)c(CN(C)C3CC3)cc1n2C1CC1 [Example 225] has an IC50 [1, 3] of 200 to 500 nM and an IC50 ([2]; HCT-116, 72 h) of less than 20 nM.

Compound CC[C@@]1(O)C(=O)OCc2c1cc1n(c2=O)Cc2c-1c(=O)c1cc(F)c(C)cc1n2CCNC1CCC1 [Example 159] has an IC50 [1, 3] of 200 to 500 nM and an IC50 ([2]; HCT-116, 72 h) of less than 20 nM.

CC[C@@]1(O)C(=O)OCc2c1cc1n(c2=O)Cc2c-1c(=O)c1cc(F)ccc1n2CCN(C)C1CCCC1(C)C (some centres unmarked) [Example 139] gave an IC50 [1, 3] of 200 to 500 nM and an IC50 ([2]; HCT-116, 72 h) of less than 20 nM.

With CC[C@@]1(O)C(=O)OCc2c1cc1n(c2=O)Cc2c-1c(=O)c1cc(F)c(N)cc1n2C1CCCC1 [Example 69, (S)-9-amino-4-ethyl-8-fluoro-4-hydroxy-11-cyclopentyl-1,12-dihydro-14H-pyrano[3,4:6,7]indolizino[2,1-b]quinoline-3,6,14(4H,11H)-trione] the IC50 [1, 4] was less than 200 nM and the IC50 [2, 5] was less than 20 nM.

CC[C@@]1(O)C(=O)OCc2c1cc1n(c2=O)Cc2c-1c(=O)c1cc(F)ccc1n2CCN1CCC(F)(F)CC1 [Example 190] gave an IC50 [1, 3] of less than 200 nM and an IC50 ([2]; HCT-116, 72 h) of less than 20 nM.

In the case of CC[C@@]1(O)C(=O)OCc2c1cc1n(c2=O)Cc2c-1c(=O)c1cc(F)c(C)cc1n2-c1ccc(N)cc1 [Example 68, (S)-11-(4-aminophenyl)-4-ethyl-8-fluoro-4-hydroxy-9-methyl-1,12-dihydro-14H-pyrano[3,4:6,7]indolizino[2,1-b]quinoline-3,6,14 (4H,11H)-trione], the IC50 [1, 3] is reported as 200 to 500 nM and the IC50 ([2]; HCT-116, 72 h) is reported as less than 20 nM.

CC[C@@]1(O)C(=O)OCc2c1cc1n(c2=O)Cc2c-1c(=O)c1cc(F)cc(F)c1n2C [Example 24, (S)-4-ethyl-8,10-difluoro-4-hydroxy-11-methyl-1,12-dihydro-14H-pyrano[3,4:6,7]indolizino[2,1-b]quinoline-3,6,14(4H,11H)-trione] was tested, and the IC50 [1, 3] was less than 200 nM and the IC50 ([2]; HCT-116, 72 h) was less than 20 nM.

Work on CC[C@@]1(O)C(=O)OCc2c1cc1n(c2=O)Cc2c-1c(=O)c1cc(F)ccc1n2C [Example 6, (S)-4-ethyl-8-fluoro-4-hydroxy-11-methyl-1,12-dihydro-14H-pyrano[3',4':6,7]indazino[2,1-b]quinoline-3,6,14(4H,11H)-trione] yielded an IC50 [1, 4] of less than 200 nM and an IC50 [2, 5] of less than 20 nM.

Reference: patent EP4778929A1, “NOVEL TYPE I TOPOISOMERASE INHIBITOR, AND PREPARATION METHOD THEREFOR AND USE THEREOF” (priority 2023, dated 2025)
